Measurements reported in patent publication US20240408099A1, “COMBINATION […] OF KRAS G12D INHIBITORS WITH Pan ErbB FAMILY INHIBITORS” (MIRATI THERAPEUTICS, INC., priority 2021, published 2024).

Legend:
Format in all cases: in vivo, nude/nude mice
LS180 cells = experiment: LS180 colon cancer xenograft, tumor volumes; conditions: for tumor growth inhibition: 30 mg/kg BID, single agent, Day 15
Method: (§1) Immunocompromised nude/nude mice are inoculated in the right hind flank with cells harboring a KRas G12D mutation. When tumor volumes reach between 200-400 mm^3 in size, the mice are divided into four to five groups of 5 mice each. The first group is administered vehicle only. […] The fourth or last groups are administered the single agent dose of the KRas G12D inhibitor using the twice daily schedule and/or the 2 sequential days followed by 5 days off schedule in combination with the single agent dose of one of the EGFR inhibitors. […] Tumor volumes are measured using a caliper every two-three days and tumor volumes are calculated by the formula: […].
(§2) 20 to 30 nude/nude mice per study were inoculated in the right hind limb with 5×10^6 LS180 cells, AsPC-1 cells, GP2D cells, Panc 02.03 cells, SW1990 cells, or SNU-1033 cells.
Experimental Procedures. 25 nude/nude mice were inoculated with LS180 cells in the right hind flank. When the tumors reached ˜250 mm^3 five treatment groups were established with five mice per group.

AsPC-1 cells [1] = experiment: AsPC-1 TGI-42 pancreatic cancer xenograft, tumor volumes
Method: Immunocompromised nude/nude mice are inoculated in the right hind flank with cells harboring a KRas G12D mutation. When tumor volumes reach between 200-400 mm^3 in size, the mice are divided into four to five groups of 5 mice each. The first group is administered vehicle only. […] The fourth or last groups are administered the single agent dose of the KRas G12D inhibitor using the twice daily schedule and/or the 2 sequential days followed by 5 days off schedule in combination with the single agent dose of one of the EGFR inhibitors. The treatment period varies from cell line to cell line but typically is between 15-40 days. Tumor volumes are measured using a caliper every two-three days and tumor volumes are calculated by the formula: […].
as §2
Experimental Procedures. 30 nude/nude mice were inoculated with AsPC-1 cells in the right hind flank. When the tumors reached ˜300 mm^3 six treatment groups were established with five mice per group.

GP2D cells = experiment: GP2D TGI MDS 200108-807 colorectal cancer xenograft, tumor volumes; conditions: for Average Tumor Volumes: 30 mg/kg BID Daily
Method: as §1, §2
Experimental Procedures. 20 nude/nude mice were inoculated with GP2D cells in the right hind flank. When the tumors reached ˜300 mm^3 four treatment groups were established with five mice per group.

Panc 02.03 = Panc 02.03 TGI-43 pancreatic cancer xenograft (Table 5), tumor volumes; conditions: for Average Tumor Volumes: 30 mg/kg BID 2x/week
Method: as §1
20 to 30 nude/nude mice per study were inoculated in the right hind limb with 5×10^6 LS180 cells, AsPC-1 cells, GP2D cells, Panc 02.03 cells, SW1990 cells, or SNU-1033 cells. […]

SW1990 cells = experiment: SW1990 TGI MDS #200407-807 pancreatic cancer xenograft, tumor volumes; conditions: for Average Tumor Volumes: 30 mg/kg BID Daily
Method: as §1, §2
Experimental Procedures. 30 nude/nude mice were inoculated with SW1990 cells in the right hind flank. When the tumors reached ˜300 mm^3 six treatment groups were established with five mice per group.

SNU-1033 cells = experiment: SNU-1033 TGI 46 colorectal cancer xenograft, tumor volumes; conditions: for Average Tumor Volumes: 30 mg/kg BID 2x/week
Method: as §1, §2
Experimental Procedures. 20 nude/nude mice were inoculated with SNU-1033 cells in the right hind flank. When the tumors reached ˜300 mm^3 four treatment groups were established with five mice per group.

AsPC-1 cells [2] = experiment: AsPC-1 TGI 26 pancreatic cancer xenograft, tumor volumes; conditions: for Average Tumor Volumes: 30 mg/kg IP BID daily
Method: as §1
Experimental Procedures. 20 nude/nude mice were inoculated with AsPC-1 cells in the right hind flank. When the tumors reached ˜200 mm^3 four treatment groups were established with five mice per group.

[3] = 30 mg/kg BID 2x/week, Study Day 1
[4] = 30 mg/kg BID Daily, Study Day 1

C#Cc1c(F)ccc2cc(O)cc(-c3ncc4c(N5C[C@H]6CC[C@@H](C5)N6)nc(OC[C@@]56CCCN5C[C@H](F)C6)nc4c3F)c12 [MRTX1133, 4-(4-((1R,5S)-3,8-diazabicyclo[3.2.1]octan-3-yl)-8-fluoro-2-(((2R,7aS)-2-fluorohexahydro-1H-pyrrolizin-7a-yl)methoxy)pyrido[4,3-d]pyrimidin-7-yl)-5-ethynyl-6-fluoronaphthalen-2-ol]
Average Tumor Volumes (LS180 cells; [3]): 272.338 mm^3
Average Tumor Volumes (LS180 cells; 30 mg/kg BID 2x/week, Study Day 4): 570.528 mm^3
Average Tumor Volumes (LS180 cells; 30 mg/kg BID 2x/week, Study Day 8): 1134.668 mm^3
Average Tumor Volumes (LS180 cells; 30 mg/kg BID 2x/week, Study Day 11): 1439.99 mm^3
Average Tumor Volumes (LS180 cells; 30 mg/kg BID 2x/week, Study Day 15): 1899.832 mm^3
Average Tumor Volumes (LS180 cells; [4]): 268.94 mm^3
Average Tumor Volumes (LS180 cells; 30 mg/kg BID Daily, Study Day 4): 418.808 mm^3
Average Tumor Volumes (LS180 cells; 30 mg/kg BID Daily, Study Day 8): 593.71 mm^3
Average Tumor Volumes (LS180 cells; 30 mg/kg BID Daily, Study Day 11): 808.808 mm^3
Average Tumor Volumes (LS180 cells; 30 mg/kg BID Daily, Study Day 15): 1197.106 mm^3
tumor growth inhibition (LS180 cells; daily administration): 45%
tumor growth inhibition (LS180 cells; twice per week administration): 4%
Average Tumor Volumes (AsPC-1 cells [1]; [3]): 325.894 mm^3
Average Tumor Volumes (AsPC-1 cells [1]; 30 mg/kg BID 2x/week, Study Day 6): 394.182 mm^3
Average Tumor Volumes (AsPC-1 cells [1]; 30 mg/kg BID 2x/week, Study Day 9): 472.586 mm^3
Average Tumor Volumes (AsPC-1 cells [1]; 30 mg/kg BID 2x/week, Study Day 13): 496.598 mm^3
Average Tumor Volumes (AsPC-1 cells [1]; 30 mg/kg BID 2x/week, Study Day 16): 554.052 mm^3
Average Tumor Volumes (AsPC-1 cells [1]; 30 mg/kg BID 2x/week, Study Day 20): 586.5625 mm^3
Average Tumor Volumes (AsPC-1 cells [1]; 30 mg/kg BID 2x/week, Study Day 23): 640.49 mm^3
Average Tumor Volumes (AsPC-1 cells [1]; 30 mg/kg BID 2x/week, Study Day 27): 679.96 mm^3
Average Tumor Volumes (AsPC-1 cells [1]; 30 mg/kg BID 2x/week, Study Day 30): 795.11 mm^3
Average Tumor Volumes (AsPC-1 cells [1]; 30 mg/kg BID 2x/week, Study Day 34): 862.74 mm^3
Average Tumor Volumes (AsPC-1 cells [1]; [4]): 323.454 mm^3
Average Tumor Volumes (AsPC-1 cells [1]; 30 mg/kg BID Daily, Study Day 6): 356.398 mm^3
Average Tumor Volumes (AsPC-1 cells [1]; 30 mg/kg BID Daily, Study Day 9): 374.684 mm^3
Average Tumor Volumes (AsPC-1 cells [1]; 30 mg/kg BID Daily, Study Day 13): 316.51 mm^3
Average Tumor Volumes (AsPC-1 cells [1]; 30 mg/kg BID Daily, Study Day 16): 291.71 mm^3
Average Tumor Volumes (AsPC-1 cells [1]; 30 mg/kg BID Daily, Study Day 20): 269.246 mm^3
Average Tumor Volumes (AsPC-1 cells [1]; 30 mg/kg BID Daily, Study Day 23): 213.334 mm^3
Average Tumor Volumes (AsPC-1 cells [1]; 30 mg/kg BID Daily, Study Day 27): 195.354 mm^3
Average Tumor Volumes (AsPC-1 cells [1]; 30 mg/kg BID Daily, Study Day 30): 216.072 mm^3
Average Tumor Volumes (AsPC-1 cells [1]; 30 mg/kg BID Daily, Study Day 34): 266.324 mm^3
tumor regression (AsPC-1 cells [1]; 30 mg/kg BID daily, single agent, Day 34): −9%
Average Tumor Volumes (GP2D cells; Study Day 2): 341.3 mm^3
Average Tumor Volumes (GP2D cells; Study Day 6): 282.98 mm^3
Average Tumor Volumes (GP2D cells; Study Day 9): 237.18 mm^3
Average Tumor Volumes (GP2D cells; Study Day 13): 244.1 mm^3
Average Tumor Volumes (GP2D cells; Study Day 16): 198.725 mm^3
Average Tumor Volumes (GP2D cells; Study Day 20): 288.05 mm^3
Average Tumor Volumes (GP2D cells; Study Day 23): 339 mm^3
Average Tumor Volumes (GP2D cells; Study Day 27): 385.85 mm^3
Average Tumor Volumes (GP2D cells; Study Day 30): 394.05 mm^3
tumor growth inhibition (GP2D cells; 30 mg/kg BID daily, single agent, Day 30): 96%
Average Tumor Volumes (Panc 02.03; Study Day 1): 329.18 mm^3
Average Tumor Volumes (Panc 02.03; Study Day 4): 265.246 mm^3
Average Tumor Volumes (Panc 02.03; Study Day 8): 386.354 mm^3
Average Tumor Volumes (Panc 02.03; Study Day 11): 392.042 mm^3
Average Tumor Volumes (Panc 02.03; Study Day 15): 480.434 mm^3
Average Tumor Volumes (Panc 02.03; Study Day 18): 496.496 mm^3
Average Tumor Volumes (Panc 02.03; Study Day 22): 549.618 mm^3
tumor growth inhibition (Panc 02.03; 30 mg/kg BID (twice per week), single agent, Day 22): 72%
Average Tumor Volumes (SW1990 cells; Study Day 2): 265.08 mm^3
Average Tumor Volumes (SW1990 cells; Study Day 6): 194.42 mm^3
Average Tumor Volumes (SW1990 cells; Study Day 9): 187.24 mm^3
Average Tumor Volumes (SW1990 cells; Study Day 13): 241.84 mm^3
Average Tumor Volumes (SW1990 cells; Study Day 16): 235.32 mm^3
Average Tumor Volumes (SW1990 cells; Study Day 20): 214.98 mm^3
Average Tumor Volumes (SW1990 cells; Study Day 23): 195.04 mm^3
Average Tumor Volumes (SW1990 cells; Study Day −1): 362.82 mm^3
tumor regression (SW1990 cells; 30 mg/kg BID daily, single agent, Day 23): −46%
Average Tumor Volumes (SNU-1033 cells; Study Day 1): 298.92 mm^3
Average Tumor Volumes (SNU-1033 cells; Study Day 5): 336.336 mm^3
Average Tumor Volumes (SNU-1033 cells; Study Day 8): 431.99 mm^3
Average Tumor Volumes (SNU-1033 cells; Study Day 12): 468.892 mm^3
Average Tumor Volumes (SNU-1033 cells; Study Day 15): 529.222 mm^3
Average Tumor Volumes (SNU-1033 cells; Study Day 19): 643.516 mm^3
Average Tumor Volumes (SNU-1033 cells; Study Day 22): 703.368 mm^3
Average Tumor Volumes (SNU-1033 cells; Study Day 26): 802.69 mm^3
Average Tumor Volumes (SNU-1033 cells; Study Day 29): 838.708 mm^3
Average Tumor Volumes (SNU-1033 cells; Study Day 33): 895.918 mm^3
tumor growth inhibition (SNU-1033 cells; 30 mg/kg twice per week, single agent, Day 33): 47%
Average Tumor Volumes (AsPC-1 cells [2]; Study Day 0): 197.468 mm^3
Average Tumor Volumes (AsPC-1 cells [2]; Study Day 4): 194.514 mm^3
Average Tumor Volumes (AsPC-1 cells [2]; Study Day 7): 175.198 mm^3
Average Tumor Volumes (AsPC-1 cells [2]; Study Day 11): 159.756 mm^3
Average Tumor Volumes (AsPC-1 cells [2]; Study Day 14): 172.986 mm^3
Average Tumor Volumes (AsPC-1 cells [2]; Study Day 18): 168.412 mm^3
Average Tumor Volumes (AsPC-1 cells [2]; Study Day 21): 143.928 mm^3
Average Tumor Volumes (AsPC-1 cells [2]; Study Day 25): 149.308 mm^3
tumor regression (AsPC-1 cells [2]; 30 mg/kg twice daily, single agent, Day 25): −24%
